Results taken from ChEMBL document CHEMBL6127107, “Oleanolic acid derivatives against drug-resistant bacteria and fungi by multi-targets to avoid drug resistance” (Eur J Med Chem, 2024).
≈ marks a conversion by molar mass, not a printed value.

How the values were obtained:
Type in all cases: functional
Staphylococcus aureus [1] = experiment: Antimicrobial activity against methicillin-resistant Staphylococcus aureus 003
Staphylococcus aureus [2] = experiment: Antimicrobial activity against Staphylococcus aureus 31
Enterococcus faecalis = experiment: Antimicrobial activity against vancomycin resistant Enterococcus faecalis ATCC 51299
Escherichia coli = experiment: Antimicrobial activity against Escherichia coli
Pseudomonas aeruginosa = experiment: Antimicrobial activity against Pseudomonas aeruginosa
Staphylococcus aureus [3] = experiment: Antimicrobial activity against Staphylococcus aureus 10
Staphylococcus aureus [4] = experiment: Antimicrobial activity against Staphylococcus aureus 29
Staphylococcus aureus [5] = experiment: Antimicrobial activity against methicillin-resistant Staphylococcus aureus 011
Candida albicans = experiment: Antimicrobial activity against fluconazole-resistant Candida albicans

| Structure (SMILES) | MIC (Staphylococcus aureus [1]) | MIC (Enterococcus faecalis) | other results |
| --- | --- | --- | --- |
| CCC(=O)O[C@H]1CC[C@]2(C)[C@H]3CC=C4[C@@H]5CC(C)(C)CC[C@]5(C(=O)O)CC[C@@]4(C)[C@]3(C)CC[C@H]2C1(C)C | > 64 µg/mL | > 64 µg/mL | MIC (Staphylococcus aureus [2]): > 64 µg/mL; MIC (Escherichia coli): > 64 µg/mL; MIC (Pseudomonas aeruginosa): > 64 µg/mL; MIC (Staphylococcus aureus [3]): > 64 µg/mL; MIC (Staphylococcus aureus [4]): > 64 µg/mL; MIC (Staphylococcus aureus [5]): > 64 µg/mL; MIC (Candida albicans): > 64 µg/mL |
| CCCCCCCCC(=O)O[C@H]1CC[C@]2(C)[C@H]3CC=C4[C@@H]5CC(C)(C)CC[C@]5(C(=O)O)CC[C@@]4(C)[C@]3(C)CC[C@H]2C1(C)C | > 64 µg/mL | > 64 µg/mL | MIC (Staphylococcus aureus [2]): > 64 µg/mL; MIC (Escherichia coli): > 64 µg/mL; MIC (Pseudomonas aeruginosa): > 64 µg/mL; MIC (Staphylococcus aureus [3]): > 64 µg/mL; MIC (Staphylococcus aureus [4]): > 64 µg/mL; MIC (Staphylococcus aureus [5]): > 64 µg/mL; MIC (Candida albicans): > 64 µg/mL |
| CC1(C)CC[C@]2(C(=O)O)CC[C@]3(C)C(=CC[C@@H]4[C@@]5(C)CCC(=O)C(C)(C)[C@@H]5CC[C@]43C)[C@@H]2C1 [OLEANONIC ACID] | 256 µg/mL (≈ 563 µM) | 512 µg/mL (≈ 1130 µM) |  |
| CC1(C)CC[C@]2(C(=O)O)CC[C@]3(C)C(=CC[C@@H]4[C@@]5(CO)C[C@@H](O)[C@H](O)[C@@](C)(CO)[C@@H]5CC[C@]43C)[C@@H]2C1 | > 512 µg/mL | > 512 µg/mL |  |
| C[C@H]1[C@H](C)CC[C@]2(C)CC[C@]3(C)C(=CC[C@@H]4[C@@]5(C)CC[C@H](O)C(C)(C)[C@@H]5CC[C@]43C)[C@H]12 | > 512 µg/mL | > 512 µg/mL |  |
| C[C@H]1[C@H](C)CC[C@]2(C)CC[C@]3(C)C(=CC[C@@H]4[C@@]5(C)CC[C@@H](O)[C@](C)(C(=O)O)[C@@H]5CC[C@]43C)[C@H]12 [BOSWELLIC ACID] | 8 µg/mL (≈ 17.5 µM) | 8 µg/mL (≈ 17.5 µM) |  |
| C[C@H]1[C@H](C)CC[C@]2(C(=O)O)CC[C@]3(C)C(=CC[C@@H]4[C@@]5(C)C[C@@H](O)[C@H](O)C(C)(C)[C@@H]5CC[C@]43C)[C@H]12 [COROSOLIC ACID] | 16 µg/mL (≈ 33.8 µM) | 32 µg/mL (≈ 67.7 µM) |  |
| CC1(C)CC[C@]2(C(=O)O)CC[C@]3(C)C(=CC[C@@H]4[C@@]5(C)CC[C@H](O[C@@H]6O[C@H](C(=O)O)[C@@H](O)[C@H](O[C@@H]7OC[C@@H](O)[C@H](O)[C@H]7O)[C@H]6O)C(C)(C)[C@@H]5CC[C@]43C)[C@@H]2C1 | > 512 µg/mL | > 512 µg/mL |  |
| C[C@H]1[C@H](C)CC[C@]2(C)CC[C@]3(C)C(=CC(=O)[C@@H]4[C@@]5(C)CC[C@@H](O)[C@](C)(C(=O)O)[C@@H]5CC[C@]43C)[C@H]12 [11-KETO BOSWELLIC ACID] | 16 µg/mL (≈ 34 µM) | 32 µg/mL (≈ 68 µM) |  |
| C[C@@H]1CC[C@]2(C(=O)O)CC[C@]3(C)C(=CC[C@@H]4[C@@]5(C)CC[C@H](O)[C@@](C)(CO)[C@@H]5CC[C@]43C)[C@@H]2[C@]1(C)O [ROTUNDIC ACID] | 128 µg/mL (≈ 262 µM) | 256 µg/mL (≈ 524 µM) |  |
| C=C1CC[C@]2(C)CC[C@]3(C)[C@H](CC[C@@H]4[C@@]5(C)CC[C@H](OC(C)=O)C(C)(C)[C@@H]5CC[C@]43C)[C@H]2[C@@H]1C [TARAXASTEROL ACETATE] | > 512 µg/mL | > 512 µg/mL |  |
| CC1(C)C(OC(=O)c2ccccc2)CC[C@]2(C)C3=C([C@@H](O)C[C@@H]12)[C@@]1(C)CC[C@@]2(C)CC[C@@](C)(COC(=O)c4ccccc4)C[C@H]2[C@]1(C)CC3 (some centres undefined) | > 512 µg/mL | > 512 µg/mL |  |
| C[C@H]1[C@H](C)CC[C@]2(C(=O)O)CC[C@]3(C)C(=CC[C@@H]4[C@@]5(C)C[C@@H](O)[C@H](O)[C@@](C)(CO)[C@@H]5CC[C@]43C)[C@H]12 [ASIATIC ACID] | 16 µg/mL (≈ 32.7 µM) | 32 µg/mL (≈ 65.5 µM) |  |
| C[C@H]1[C@H](C)CC[C@]2(C(=O)O)CC[C@]3(C)C(=CC[C@@H]4[C@@]5(C)CCC(=O)C(C)(C)[C@@H]5CC[C@]43C)[C@H]12 [URSONIC ACID] | 128 µg/mL (≈ 282 µM) | 256 µg/mL (≈ 563 µM) |  |
| COC(=O)[C@@]1(C)CC[C@]2(C(=O)OC3O[C@H](CO)[C@@H](O)[C@H](O)[C@H]3O)CC[C@]3(C)C(=CC[C@@H]4[C@@]5(C)CC[C@H](O[C@@H]6OC[C@@H](O)[C@H](O)[C@H]6O)[C@@](C)(CO)[C@@H]5CC[C@]43C)[C@@H]2C1 (some centres undefined) | > 512 µg/mL | > 512 µg/mL |  |
